{"source": "ChEMBL document CHEMBL3124815", "about": "“Discovery of a selective kinase inhibitor (TAK-632) targeting pan-RAF inhibition: design, synthesis, and biological evaluation of C-7-substituted 1,3-benzothiazole derivatives” (J Med Chem, 2013)", "key": {"[1]": {"assay": "Antiproliferative activity against human HMVII cells assessed as growth inhibition after 72 hrs by chemi-luminescence cell viability assay", "type": "functional", "conditions": "HMV-2, 72 h"}, "[2]": {"assay": "Volume of distribution at steady state in rat at 1 mg/kg, iv", "type": "ADME, organism-based", "set-up": "dose 1 mg/kg, route intravenous", "conditions": "in vivo, read-out: Vdss"}, "Mus musculus": {"test_system": "Mus musculus", "assay": "AUC (0 to 8 hrs) in mouse at 10 mg/kg, po", "type": "ADME, organism-based, Blood", "set-up": "time < 8 hr, dose 10 mg/kg, route oral", "conditions": "in vivo"}, "[3]": {"molecular_target": "T1, RAF proto-oncogene serine/threonine-protein kinase (Homo sapiens, UniProt P04049)", "T1 sequence (P04049 whole entry)": "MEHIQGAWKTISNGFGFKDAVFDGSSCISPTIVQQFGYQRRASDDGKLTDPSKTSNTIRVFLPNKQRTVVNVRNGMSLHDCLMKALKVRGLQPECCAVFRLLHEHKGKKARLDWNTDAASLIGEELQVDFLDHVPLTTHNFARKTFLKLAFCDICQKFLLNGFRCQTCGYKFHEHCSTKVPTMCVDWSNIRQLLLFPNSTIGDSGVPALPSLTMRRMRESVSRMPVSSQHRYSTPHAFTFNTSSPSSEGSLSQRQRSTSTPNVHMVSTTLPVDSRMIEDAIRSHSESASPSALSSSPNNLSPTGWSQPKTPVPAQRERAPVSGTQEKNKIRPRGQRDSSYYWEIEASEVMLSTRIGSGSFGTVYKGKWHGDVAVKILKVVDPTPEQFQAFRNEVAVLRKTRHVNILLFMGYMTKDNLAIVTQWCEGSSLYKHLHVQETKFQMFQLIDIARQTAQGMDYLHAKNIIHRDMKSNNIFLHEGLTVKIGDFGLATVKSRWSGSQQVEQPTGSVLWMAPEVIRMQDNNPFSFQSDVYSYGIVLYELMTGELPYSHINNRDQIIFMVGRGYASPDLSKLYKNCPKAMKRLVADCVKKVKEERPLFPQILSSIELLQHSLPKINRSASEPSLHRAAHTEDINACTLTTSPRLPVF", "assay": "Binding affinity to CRAF (unknown origin) assessed as equilibrium dissociation constant by surface plasmon resonance analysis"}, "Rattus norvegicus [4]": {"test_system": "Rattus norvegicus", "assay": "Toxicity in F344 nude rat xenografted with human A375 cells expressing BRAF V600E mutant assessed as body weight change at 9.7 mg/kg, po bid for 14 days relative to control", "type": "organism-based, A-375", "set-up": "dose 9.7 mg/kg, route oral", "conditions": "in vivo, 336 h"}, "[5]": {"assay": "Total clearance in rat at 1 mg/kg, iv", "type": "ADME, organism-based", "set-up": "dose 1 mg/kg, route intravenous", "conditions": "in vivo"}, "[6]": {"molecular_target": "T1, RAF proto-oncogene serine/threonine-protein kinase", "assay": "Competitive inhibition of CRAF (unknown origin) in presence of 0.5 uM ATP by ELISA"}, "[7]": {"molecular_target": "Platelet-derived growth factor receptor beta (Homo sapiens, UniProt P09619)", "assay": "Inhibition of PDGFR beta (unknown origin) using biotinylated poly-Glu-Tyr (4:1) as substrate preincubated for 5 mins measured after 12 hrs"}, "[8]": {"molecular_target": "T1, RAF proto-oncogene serine/threonine-protein kinase", "assay": "Inhibition of CRAF (unknown origin) compound preincubated for 1 hr in presence of 0.5 uM ATP"}, "[9]": {"assay": "Total clearance in dog at 1 mg/kg, iv", "type": "ADME, organism-based, Canis lupus familiaris", "set-up": "dose 1 mg/kg, route intravenous", "conditions": "in vivo"}, "[10]": {"assay": "Mean residence time in rat at 1 mg/kg, iv", "type": "ADME, organism-based", "set-up": "dose 1 mg/kg, route intravenous", "conditions": "in vivo"}, "[11]": {"assay": "AUC (0 to 24 hrs) in rat at 1 mg/kg, iv", "type": "ADME, organism-based", "set-up": "time < 24 hr, dose 1 mg/kg, route intravenous", "conditions": "plasma"}, "[12]": {"assay": "Volume of distribution at steady state in dog at 1 mg/kg, iv", "type": "ADME, organism-based, Canis lupus familiaris", "set-up": "dose 1 mg/kg, route intravenous", "conditions": "in vivo, read-out: Vdss"}, "[13]": {"molecular_target": "Cyclin-dependent kinase 1/cyclin B1 (Homo sapiens, UniProt P06493)", "assay": "Inhibition of CDK1/CycB (unknown origin) using histone H1 as substrate after 20 mins", "type": "protein-complex assay"}, "Angiopoietin-1 receptor": {"molecular_target": "Angiopoietin-1 receptor (Homo sapiens, UniProt Q02763)", "sequence (Q02763 whole entry)": "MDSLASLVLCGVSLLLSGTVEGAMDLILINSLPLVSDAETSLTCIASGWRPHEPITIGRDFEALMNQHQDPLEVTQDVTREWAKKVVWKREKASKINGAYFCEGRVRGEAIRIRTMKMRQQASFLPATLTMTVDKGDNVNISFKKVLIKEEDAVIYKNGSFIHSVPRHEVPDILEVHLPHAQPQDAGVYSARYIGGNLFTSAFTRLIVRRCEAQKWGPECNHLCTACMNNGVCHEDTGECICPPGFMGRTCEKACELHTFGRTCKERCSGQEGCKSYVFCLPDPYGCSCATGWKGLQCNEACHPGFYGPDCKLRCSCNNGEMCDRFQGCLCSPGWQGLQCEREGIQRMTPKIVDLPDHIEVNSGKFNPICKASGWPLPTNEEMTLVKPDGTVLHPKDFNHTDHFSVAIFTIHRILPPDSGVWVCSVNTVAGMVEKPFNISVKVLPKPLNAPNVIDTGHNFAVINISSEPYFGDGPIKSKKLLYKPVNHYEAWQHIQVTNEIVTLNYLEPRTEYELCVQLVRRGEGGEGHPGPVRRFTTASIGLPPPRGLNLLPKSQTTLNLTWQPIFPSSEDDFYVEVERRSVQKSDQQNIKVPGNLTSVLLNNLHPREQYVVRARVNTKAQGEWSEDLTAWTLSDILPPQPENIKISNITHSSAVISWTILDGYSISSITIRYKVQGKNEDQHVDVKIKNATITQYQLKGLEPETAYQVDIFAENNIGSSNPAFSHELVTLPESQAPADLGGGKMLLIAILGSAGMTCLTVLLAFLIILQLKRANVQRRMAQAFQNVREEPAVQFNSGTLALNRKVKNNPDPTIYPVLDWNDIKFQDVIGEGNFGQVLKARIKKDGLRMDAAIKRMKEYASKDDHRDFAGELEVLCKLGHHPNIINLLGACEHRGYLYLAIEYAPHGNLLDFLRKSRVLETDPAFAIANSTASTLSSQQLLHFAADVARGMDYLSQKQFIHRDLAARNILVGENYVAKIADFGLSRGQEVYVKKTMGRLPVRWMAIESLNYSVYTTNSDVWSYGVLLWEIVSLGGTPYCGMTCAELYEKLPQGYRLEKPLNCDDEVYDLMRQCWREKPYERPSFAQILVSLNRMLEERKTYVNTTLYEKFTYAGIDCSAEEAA", "assay": "Inhibition of TIE2 receptor (unknown origin) using biotinylated poly-Glu-Tyr (4:1) as substrate preincubated for 5 mins measured after 12 hrs"}, "[14]": {"assay": "Mean residence time in dog at 10 mg/kg, po", "type": "ADME, organism-based, Canis lupus familiaris", "set-up": "dose 10 mg/kg, route oral", "conditions": "in vivo"}, "[15]": {"molecular_target": "Hepatocyte growth factor receptor (Homo sapiens, UniProt P08581)", "assay": "Inhibition of c-Met receptor (unknown origin) using biotinylated poly-Glu-Tyr (4:1) as substrate preincubated for 5 mins measured after 12 hrs"}, "Rattus norvegicus [16]": {"test_system": "Rattus norvegicus", "assay": "Toxicity in F344 nude rat xenografted with human A375 cells expressing BRAF V600E mutant assessed as body weight change at 1.9 mg/kg, po bid for 14 days relative to control", "type": "organism-based, A-375", "set-up": "dose 1.9 mg/kg, route oral", "conditions": "in vivo, 336 h"}, "[17]": {"molecular_target": "T2, Serine/threonine-protein kinase B-raf (Homo sapiens, UniProt P15056)", "T2 sequence (P15056 whole entry)": "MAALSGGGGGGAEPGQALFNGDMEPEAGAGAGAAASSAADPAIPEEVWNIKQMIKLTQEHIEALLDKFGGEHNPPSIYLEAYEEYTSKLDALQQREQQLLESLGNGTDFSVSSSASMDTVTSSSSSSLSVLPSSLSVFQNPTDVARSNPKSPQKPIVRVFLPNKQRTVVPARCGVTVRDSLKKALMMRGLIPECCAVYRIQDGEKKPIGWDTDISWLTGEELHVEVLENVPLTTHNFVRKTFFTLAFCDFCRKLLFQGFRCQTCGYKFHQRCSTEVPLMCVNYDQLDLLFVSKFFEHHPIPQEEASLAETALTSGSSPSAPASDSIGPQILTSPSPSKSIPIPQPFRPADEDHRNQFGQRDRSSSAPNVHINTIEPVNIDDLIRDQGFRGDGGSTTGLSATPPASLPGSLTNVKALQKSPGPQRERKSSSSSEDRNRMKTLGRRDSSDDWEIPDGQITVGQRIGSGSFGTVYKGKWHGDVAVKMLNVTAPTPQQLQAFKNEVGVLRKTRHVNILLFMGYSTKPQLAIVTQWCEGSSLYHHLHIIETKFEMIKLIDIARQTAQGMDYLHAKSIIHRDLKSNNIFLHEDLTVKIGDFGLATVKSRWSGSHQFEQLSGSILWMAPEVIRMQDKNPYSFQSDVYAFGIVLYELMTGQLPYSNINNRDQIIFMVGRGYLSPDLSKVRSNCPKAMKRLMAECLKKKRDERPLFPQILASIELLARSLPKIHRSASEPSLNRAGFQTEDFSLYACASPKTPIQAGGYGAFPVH", "assay": "Inhibition of N-terminal FLAG-tagged wild type BRAF (unknown origin) expressed in baculovirus system using GST-MEK1(K96R) as substrate after 20 mins"}, "[18]": {"molecular_target": "Glycogen synthase kinase-3 beta (Homo sapiens, UniProt P49841)", "sequence (P49841 whole entry)": "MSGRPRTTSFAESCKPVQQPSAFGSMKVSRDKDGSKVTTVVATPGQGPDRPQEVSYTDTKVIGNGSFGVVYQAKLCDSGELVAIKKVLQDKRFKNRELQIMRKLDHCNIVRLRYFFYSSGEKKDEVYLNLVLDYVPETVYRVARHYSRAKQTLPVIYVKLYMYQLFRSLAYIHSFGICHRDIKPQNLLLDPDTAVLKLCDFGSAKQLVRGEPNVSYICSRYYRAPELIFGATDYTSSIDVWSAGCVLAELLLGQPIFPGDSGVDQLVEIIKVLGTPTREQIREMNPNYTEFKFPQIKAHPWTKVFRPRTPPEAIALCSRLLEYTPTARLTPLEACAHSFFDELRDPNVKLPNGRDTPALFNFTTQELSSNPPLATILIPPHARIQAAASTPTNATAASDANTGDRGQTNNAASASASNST", "assay": "Inhibition of C-terminal FLAG-tagged GSK3beta (unknown origin) expressed in baculovirus system after 30 mins"}, "Aurora kinase B": {"molecular_target": "Aurora kinase B (Homo sapiens, UniProt Q96GD4)", "sequence (Q96GD4 whole entry)": "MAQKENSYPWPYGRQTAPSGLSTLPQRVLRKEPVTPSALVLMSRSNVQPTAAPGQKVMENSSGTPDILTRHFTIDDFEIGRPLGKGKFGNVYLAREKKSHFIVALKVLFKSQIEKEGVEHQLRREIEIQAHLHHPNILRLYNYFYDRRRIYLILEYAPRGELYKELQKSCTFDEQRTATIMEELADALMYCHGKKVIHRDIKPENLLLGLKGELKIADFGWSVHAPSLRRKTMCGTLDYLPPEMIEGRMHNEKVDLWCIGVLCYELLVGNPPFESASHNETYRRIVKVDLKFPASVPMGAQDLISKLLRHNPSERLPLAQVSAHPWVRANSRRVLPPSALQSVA", "assay": "Inhibition of N-terminal His-6-tagged Aurora kinase B (unknown origin) expressed in baculovirus system after 60 mins"}, "A-375 [19]": {"test_system": "A-375", "assay": "Antitumor activity against human A375 cells expressing BRAF V600E mutant xenografted in F344 nude rat assessed as reduction in tumor size at 3.9 mg/kg, po bid for 14 days relative to control", "type": "functional"}, "Rattus norvegicus [20]": {"test_system": "Rattus norvegicus", "assay": "Toxicity in F344 nude rat xenografted with human HMVII cells expressing NRAS Q61K/BRAF G469V mutant assessed as body weight change at 9.7 mg/kg, po bid for 14 days", "type": "organism-based", "set-up": "dose 9.7 mg/kg, route oral", "conditions": "in vivo, 336 h"}, "[21]": {"molecular_target": "Epidermal growth factor receptor (Homo sapiens, UniProt P00533)", "assay": "Inhibition of N-terminal peptide (DYKDDDD)-tagged EGFR (unknown origin) expressed in baculovirus system using biotinylated poly-Glu-Tyr (4:1) as substrate preincubated for 5 mins measured after 12 hrs by scintillation counting"}, "[22]": {"assay": "AUC (0 to 24 hrs) in dog at 1 mg/kg, iv", "type": "ADME, organism-based, Canis lupus familiaris", "set-up": "time < 24 hr, dose 1 mg/kg, route intravenous", "conditions": "plasma"}, "A-375 [23]": {"test_system": "A-375", "assay": "Antitumor activity against human A375 cells expressing BRAF V600E mutant xenografted in F344 nude rat assessed as reduction in tumor size at 9.7 mg/kg, po bid for 14 days relative to control", "type": "functional"}, "CDK2/Cyclin A2": {"molecular_target": "CDK2/Cyclin A2 (Homo sapiens, UniProt P24941)", "assay": "Inhibition of CDK2/CycA (unknown origin) using histone H1 as substrate after 20 mins", "type": "protein-complex assay"}, "[24]": {"assay": "Antitumor activity against human HMVII cells expressing NRAS Q61K/BRAF G469V mutant xenografted in F344 nude rat assessed as reduction in tumor size at 3.9 mg/kg, po bid for 14 days relative to control", "type": "functional, HMV-2"}, "[25]": {"molecular_target": "T2, Serine/threonine-protein kinase B-raf", "description": "Binding affinity to BRAF (unknown origin) assessed as dissociation half life by surface plasmon resonance analysis"}, "[26]": {"molecular_target": "Mitogen-activated protein kinase kinase kinase 1 (Homo sapiens, UniProt Q13233)", "assay": "Inhibition of C-terminal FLAG-tagged MEKK1 (unknown origin) expressed in baculovirus system using MBP as substrate after 60 mins"}, "Rattus norvegicus [27]": {"test_system": "Rattus norvegicus", "assay": "Toxicity in F344 nude rat xenografted with human HMVII cells expressing NRAS Q61K/BRAF G469V mutant assessed as body weight change at 3.9 mg/kg, po bid for 14 days", "type": "organism-based", "set-up": "dose 3.9 mg/kg, route oral", "conditions": "in vivo, 336 h"}, "[28]": {"molecular_target": "Mitogen-activated protein kinase 8 (Homo sapiens, UniProt P45983)", "sequence (P45983 whole entry)": "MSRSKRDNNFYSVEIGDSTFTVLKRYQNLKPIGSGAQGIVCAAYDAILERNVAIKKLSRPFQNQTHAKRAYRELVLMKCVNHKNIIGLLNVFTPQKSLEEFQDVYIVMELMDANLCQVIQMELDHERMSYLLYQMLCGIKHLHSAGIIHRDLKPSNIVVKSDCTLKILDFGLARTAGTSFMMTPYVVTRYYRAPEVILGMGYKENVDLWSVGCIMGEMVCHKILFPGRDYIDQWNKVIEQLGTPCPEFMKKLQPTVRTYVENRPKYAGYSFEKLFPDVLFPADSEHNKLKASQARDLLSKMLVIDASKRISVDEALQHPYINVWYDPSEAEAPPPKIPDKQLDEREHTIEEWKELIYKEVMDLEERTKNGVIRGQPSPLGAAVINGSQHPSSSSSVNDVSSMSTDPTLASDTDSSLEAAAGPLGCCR", "assay": "Inhibition of C-terminal FLAG-tagged JNK1 (unknown origin) expressed in baculovirus system using c-jun as substrate after 60 mins"}, "[29]": {"molecular_target": "Casein kinase I isoform delta (Homo sapiens, UniProt P48730)", "sequence (P48730 whole entry, canonical isoform)": "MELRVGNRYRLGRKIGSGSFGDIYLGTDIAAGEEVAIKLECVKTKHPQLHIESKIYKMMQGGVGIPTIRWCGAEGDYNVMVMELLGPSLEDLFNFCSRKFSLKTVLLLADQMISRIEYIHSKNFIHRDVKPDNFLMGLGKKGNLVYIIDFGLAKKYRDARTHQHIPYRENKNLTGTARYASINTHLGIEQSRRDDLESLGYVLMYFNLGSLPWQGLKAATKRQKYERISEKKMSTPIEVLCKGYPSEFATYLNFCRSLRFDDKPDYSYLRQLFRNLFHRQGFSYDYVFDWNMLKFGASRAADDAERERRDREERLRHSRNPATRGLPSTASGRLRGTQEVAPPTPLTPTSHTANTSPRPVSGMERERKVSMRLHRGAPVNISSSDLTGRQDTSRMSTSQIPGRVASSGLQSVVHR", "assay": "Inhibition of CK1delta (unknown origin) using CK1tide as substrate after 20 mins"}, "Homo sapiens": {"species_on_record": "Homo sapiens", "assay": "Selectivity factor, ratio of IC50 for VEGFR2 (unknown origin) to IC50 for N-terminal FLAG-tagged recombinant BRAF-V600E (unknown origin) expressed in baculovirus system"}, "[30]": {"assay": "Antitumor activity against human HMVII cells expressing NRAS Q61K/BRAF G469V mutant xenografted in F344 nude rat assessed as reduction in tumor size at 24.1 mg/kg, po bid for 14 days relative to control", "type": "functional, HMV-2"}, "[31]": {"molecular_target": "Mitogen-activated protein kinase 3 (Homo sapiens, UniProt P27361)", "sequence (P27361 whole entry)": "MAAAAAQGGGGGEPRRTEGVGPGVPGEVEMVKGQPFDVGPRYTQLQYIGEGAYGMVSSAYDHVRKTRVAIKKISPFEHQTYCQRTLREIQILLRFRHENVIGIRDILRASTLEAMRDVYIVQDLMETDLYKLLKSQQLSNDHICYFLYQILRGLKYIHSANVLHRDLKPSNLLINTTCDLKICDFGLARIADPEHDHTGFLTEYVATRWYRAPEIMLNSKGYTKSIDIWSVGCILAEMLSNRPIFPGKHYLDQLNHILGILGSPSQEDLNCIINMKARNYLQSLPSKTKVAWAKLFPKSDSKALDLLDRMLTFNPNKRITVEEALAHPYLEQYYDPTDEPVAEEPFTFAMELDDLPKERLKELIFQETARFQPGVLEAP", "assay": "Inhibition of C-terminal FLAG-tagged ERK1 expressed in baculovirus system (unknown origin) using MBP as substrate after 60 mins"}}, "data": [{"smiles": "N#Cc1c(Oc2ccc(F)c(NC(=O)Cc3cccc(C(F)(F)F)c3)c2)ccc2nc(NC(=O)C3CC3)sc12", "values": [{"measurement": "GI50", "setting": "[1]", "value": 200, "unit": "nM"}, {"measurement": "Vd", "setting": "[2]", "value": 1.87, "unit": "L/kg"}, {"measurement": "AUC", "setting": "Mus musculus", "value": 2480, "unit": "ng·h/mL"}, {"measurement": "Kd", "setting": "[3]", "value": 0.52, "unit": "nM"}, {"measurement": "Activity", "setting": "Rattus norvegicus [4]", "value": 14, "unit": "g"}, {"measurement": "clearance", "setting": "[5]", "value": 6.67, "unit": "mL/min/kg"}, {"measurement": "IC50", "setting": "[6]", "value": 8.1, "unit": "nM"}, {"measurement": "inhibition", "setting": "[6]; TDE = time-dependent effect", "value": "tde"}, {"measurement": "IC50", "setting": "[7]", "value": 120, "unit": "nM"}, {"measurement": "IC50", "setting": "[8]", "value": 1.5, "unit": "nM"}, {"measurement": "clearance", "setting": "[9]", "value": 11.7, "unit": "mL/min/kg"}, {"measurement": "MRT", "setting": "[10]", "value": 4.69, "unit": "h"}, {"measurement": "AUC(0-t) at 24 h", "setting": "[11]", "value": 2510, "unit": "ng·h/mL"}, {"measurement": "Vd", "setting": "[12]", "value": 1.57, "unit": "L/kg"}, {"measurement": "IC50", "setting": "[13]", "value": 790, "unit": "nM"}, {"measurement": "IC50", "setting": "Angiopoietin-1 receptor", "value": 740, "unit": "nM"}, {"measurement": "MRT", "setting": "[14]", "value": 7.12, "unit": "h"}, {"measurement": "IC50", "setting": "[15]", "value": "> 10000", "unit": "nM"}, {"measurement": "Activity", "setting": "Rattus norvegicus [16]", "value": 9.3, "unit": "g"}, {"measurement": "IC50", "setting": "[17]", "value": 8.3, "unit": "nM"}, {"measurement": "IC50", "setting": "[18]", "value": 500, "unit": "nM"}, {"measurement": "IC50", "setting": "Aurora kinase B", "value": 66, "unit": "nM"}, {"measurement": "T/C", "setting": "A-375 [19]", "value": 62.2, "unit": "%"}, {"measurement": "Activity", "setting": "Rattus norvegicus [20]", "value": 9.8, "unit": "g"}, {"measurement": "IC50", "setting": "[21]", "value": "> 10000", "unit": "nM"}, {"measurement": "AUC(0-t) at 24 h", "setting": "[22]", "value": 1430, "unit": "ng·h/mL"}, {"measurement": "T/C", "setting": "A-375 [23]", "value": -2.1, "unit": "%"}, {"measurement": "IC50", "setting": "CDK2/Cyclin A2", "value": 580, "unit": "nM"}, {"measurement": "T/C", "setting": "[24]", "value": 52, "unit": "%"}, {"measurement": "T1/2", "setting": "[25]", "value": 10, "unit": "h"}, {"measurement": "IC50", "setting": "[26]", "value": "> 10000", "unit": "nM"}, {"measurement": "Activity", "setting": "Rattus norvegicus [27]", "value": -4.8, "unit": "g"}, {"measurement": "IC50", "setting": "[28]", "value": "> 10000", "unit": "nM"}, {"measurement": "IC50", "setting": "[29]", "value": "> 10000", "unit": "nM"}, {"measurement": "Ratio IC50", "setting": "Homo sapiens", "value": 67}, {"measurement": "T/C", "setting": "[30]", "value": 0, "unit": "%"}, {"measurement": "IC50", "setting": "[31]", "value": "> 10000", "unit": "nM"}]}]}
